Patent US9101620B2, “Polymorph of 3-(substituteddihydroisoindolinone-2-yl)-2,6-dioxopiperidine, and pharmaceutical compositions thereof” (Nanjing Cavendish Bio-Engineering Technology Co., Ltd., priority 2009, dated 2015)
“Also recorded” adds a separate entry of the source.

Assays:
Type in all cases: physicochemical
[1] = Accelerated test (40° C., 75% relative humidity); settings: 40° C. and 75% relative humidity
Text: The conditions and methods of related substance test involved in this invention were in accordance with HPLC (Appendix VD of Chinese Pharmacopoeia Edition 2005).
(§1) Chromatographic conditions and system applicability: octadecylsilane bonded silica as the filler; 0.01 mol/L of potassium dihydrogen phosphate (adjusted to pH 3.5 by phosphoric acid)-methanol-acetonitrile (80:15:5) as the mobile phase; detection wavelength was 240 nm; the number of theoretical plates should be not less than 2000, calculated according to the peak of 3-(4-amino-1-oxo-1,3-dihydro-2H-isoindole-2-yl)-piperidine-2,6-dione. The resolution of the peak of 3-(4-amino-1-oxo-1,3-dihydro-2H-isoindole-2-yl)-piperidine-2,6-dione from the peaks of adjacent impurities should meet requirements.
(§2) The raw material of Polymorph I of 3-(4-amino-1-oxo-1,3-dihydro-2H-isoindole-2-yl)-piperidine-2,6-dione (hemihydrate) was hermetically packed in plastic bags of polyethylene film and put in thermostatic and humidostatic incubator at 40±2° C. and 75±5% relative humidity for six months. Sample was tested at the end of the 1st, 2nd, 3rd and 6th month respectively and the results were contrasted with that of the zeroth month. Results were listed in Tab. 5. After accelerated test at 40° C. for six months, the X-ray powder diffraction pattern was shown in FIG. 11; DSC diagram was in FIG. 12-1; TGA diagram was in FIG. 12-2
as §2, with “Polymorph II” for “Polymorph I”, “3-(4-amino-1-oxo-1,3-dihydro-2H-isoindole-2-yl)-piperidine-2,6-dione” for “3-(4-amino-1-oxo-1,3-dihydro-2H-isoindole-2-yl)-piperidine-2,6-dione (hemihydrate)”, “Tab. 10.” for “Tab. 5.”, “FIG. 22;” for “FIG. 11;”, “FIG. 23-1;” for “FIG. 12-1;”, “FIG. 23-2” for “FIG. 12-2”
as §2, with “Polymorph III” for “Polymorph I”, “3-(4-amino-1-oxo-1,3-dihydro-2H-isoindole-2-yl)-piperidine-2,6-dione” for “3-(4-amino-1-oxo-1,3-dihydro-2H-isoindole-2-yl)-piperidine-2,6-dione (hemihydrate)”, “Tab. 15.” for “Tab. 5.”, “FIG. 33;” for “FIG. 11;”, “FIG. 34-1;” for “FIG. 12-1;”, “FIG. 34-2” for “FIG. 12-2”

[2] = Solubility test according to Chinese Pharmacopoeia Edition 2005; settings: for Dissolving status: within 30 minutes
Procedure: Test was performed according to the Examples of Chinese Pharmacopoeia Edition 2005. Method: a definite quantity of the Polymorph I of 3-(4-amino-1-oxo-1,3-dihydro-2H-isoindole-2-yl)-piperidine-2,6-dione (hemihydrate) measured accurately was added into a certain quantity of solvent slowly, while the mixture was shaken strongly for 30 seconds every 5 minutes and the dissolving status within 30 minutes was observed. Results were listed in Tab. 1.
(§3) Test was performed according to the Examples of Chinese Pharmacopoeia Edition 2005. Method: a definite quantity of the (acetonitrile) solvated Polymorph II of 3-(4-amino-1-oxo-1,3-dihydro-2H-isoindole-2-yl)-piperidine-2,6-dione measured accurately was added into a certain quantity of solvent slowly, while the mixture was shaken strongly for 30 seconds every 5 minutes and the dissolving status within 30 minutes was observed. Results were listed in Tab. 61.
as §3, with “(acetone)” for “(acetonitrile)”, “polymorph III” for “Polymorph II”, “slowly” for “slowly,”, “11.” for “61.”

[3] = Observation test of long-term sample storage (crystal transformation); settings: long-term sample storage in high humidity; DSC scanning
[4] = Acid destruction (0.1 mol/L HCl), related substances by HPLC
Procedure: Acid destruction: 50 mg of sample weighted accurately was added into measuring flask of 100 mL, and 10 mL 0.1 mol/L HCl solution was added. After standing at room temperature for 1 hour, an equal amount of 0.1 mol/L NaOH solution was added for neutralization. Then the mixture was diluted with mobile phase to scale and shook to be homogeneous, and determined by HPLC.
as §1, with “HPLC” for “Chromatographic”, “lenalidomide.” for “3-(4-amino-1-oxo-1,3-dihydro-2H-isoindole-2-yl)-piperidine-2,6-dione.”
Determination method: sample was dissolved in mobile phase to be the solution containing 0.5 mg per 1 mL. 20 μL of such solution was injected into liquid chromatograph and chromatogram was recorded until fourfold the retention time of major component peak. If there were impurities peaks in the chromatogram of sample solution, total impurities and sole impurity were calculated by normalization method on the basis of peak area.

[5] = 0.1 mol/L HCl, room temperature, 1 hour

Nc1cccc2c1CN(C1CCC(=O)NC1=O)C2=O (single isomer, unassigned) [Polymorph II, 3-(4-amino-1-oxo-1,3-dihydro-2H-isoindole-2-yl)-piperidine-2,6-dione]
Appearance ([1]; 0 months): off-white powder | Content ([1]; 0 months): 99.89% | Related substance ([1]; 0 months): 0.09% | Appearance ([1]; 1 month): off-white powder | Content ([1]; 1 month): 99.85% | Related substance ([1]; 1 month): 0.09% | Appearance ([1]; 2 months): off-white powder | Content ([1]; 2 months): 99.77% | Related substance ([1]; 2 months): 0.10% | Appearance ([1]; 3 months): off-white powder | Content ([1]; 3 months): 99.72% | Related substance ([1]; 3 months): 0.10% | Appearance ([1]; 6 months): off-white powder | Content ([1]; 6 months): 99.68% | Related substance ([1]; 6 months): 0.12% | Conclusion (solubility) ([2]; 0.1 mol/L HCl solution): sparingly soluble | Dissolving status ([2]; 0.1 mol/L HCl solution): fully | Conclusion (solubility) ([2]; 0.1 mol/L NaOH solution): slightly soluble | Dissolving status ([2]; 0.1 mol/L NaOH solution): fully | Conclusion (solubility) ([2]; DMF (N,N-dimethylformamide)): freely soluble | Dissolving status ([2]; DMF): fully | Conclusion (solubility) ([2]; DMSO (dimethylsulfoxide)): freely soluble | Dissolving status ([2]; DMSO): fully | Conclusion (solubility) ([2]; acetic acid): sparingly soluble | Dissolving status ([2]; acetic acid): fully | Conclusion (solubility) ([2]; acetone): slightly soluble | Dissolving status ([2]; acetone): fully | Conclusion (solubility) ([2]; acetonitrile): slightly soluble | Dissolving status ([2]; acetonitrile): fully | Conclusion (solubility) ([2]; ethanol): very slightly soluble | Dissolving status ([2]; ethanol): fully | Conclusion (solubility) ([2]; ethyl acetate): very slightly soluble | Dissolving status ([2]; ethyl acetate): fully | Conclusion (solubility) ([2]; methanol): very slightly soluble | Dissolving status ([2]; methanol): fully | Conclusion (solubility) ([2]; water): nearly insoluble; also recorded: practically | Dissolving status ([2]; water): cannot fully | Crystal transformation [3]: a small amount of Polymorph II had transformed to Polymorph I

Nc1cccc2c1CN(C1CCC(=O)NC1=O)C2=O (single isomer, unassigned) [Polymorph I, 3-(4-amino-1-oxo-1,3-dihydro-2H-isoindole-2-yl)-piperidine-2,6-dione]
Major impurity, peak tR4.717-4.737 [4, 5]: 0.20% | Major impurity, peak tR7.367-7.381 [4, 5]: 0.41% | Major impurity, peak tR11.067-11.100 [4, 5]: 0.01% | Total impurities generated by 0.1 mol/L acid destruction for 1 hour [4, 5]: impurities: 0.62% | Chemical stability (in words) ([4]; acid condition / 0.1 mol/L diluted HCl solution): better stability | Appearance ([1]; 0 months): Off-white powder | Content ([1]; 0 months): 99.87% | Related substance ([1]; 0 months): 0.05% | Appearance ([1]; 1 month): Off-white powder | Content ([1]; 1 month): 99.85% | Related substance ([1]; 1 month): 0.05% | Appearance ([1]; 2 months): Off-white powder | Content ([1]; 2 months): 99.81% | Related substance ([1]; 2 months): 0.05% | Appearance ([1]; 3 months): Off-white powder | Content ([1]; 3 months): 99.78% | Related substance ([1]; 3 months): 0.06% | Appearance ([1]; 6 months): Off-white powder | Content ([1]; 6 months): 99.75% | Related substance ([1]; 6 months): 0.07% | Conclusion (solubility) ([2]; 0.1 mol/L HCl solution): slightly | Conclusion (solubility) ([2]; 0.1 mol/L HCl solution, listed as Polymorph 1): slightly soluble | Dissolving status ([2]; 0.1 mol/L HCl solution): fully | Conclusion (solubility) ([2]; 0.1 mol/L NaOH solution): sparingly | Conclusion (solubility) ([2]; 0.1 mol/L NaOH solution, listed as Polymorph 1): sparingly soluble | Dissolving status ([2]; 0.1 mol/L NaOH solution): fully | Conclusion (solubility) ([2]; DMF (N,N-dimethylformamide), listed as Polymorph 1): soluble | Dissolving status ([2]; DMF): fully | Conclusion (solubility) ([2]; DMSO (dimethylsulfoxide)): freely | Conclusion (solubility) ([2]; DMSO (dimethylsulfoxide), listed as Polymorph 1): freely soluble | Dissolving status ([2]; DMSO): fully | Conclusion (solubility) ([2]; acetic acid, listed as Polymorph 1): soluble | Dissolving status ([2]; acetic acid): fully | Conclusion (solubility) ([2]; acetone): slightly | Conclusion (solubility) ([2]; acetone, listed as Polymorph 1): slightly soluble | Dissolving status ([2]; acetone): fully | Conclusion (solubility) ([2]; acetonitrile): slightly | Conclusion (solubility) ([2]; acetonitrile, listed as Polymorph 1): slightly soluble | Dissolving status ([2]; acetonitrile): fully | Conclusion (solubility) ([2]; ethanol): very slightly | Conclusion (solubility) ([2]; ethanol, listed as Polymorph 1): very slightly soluble | Dissolving status ([2]; ethanol): fully | Conclusion (solubility) ([2]; ethyl acetate): very slightly | Conclusion (solubility) ([2]; ethyl acetate, listed as Polymorph 1): very slightly soluble | Dissolving status ([2]; ethyl acetate): fully | Conclusion (solubility) ([2]; methanol): slightly | Conclusion (solubility) ([2]; methanol, listed as Polymorph 1): slightly soluble | Dissolving status ([2]; methanol): fully | Conclusion (solubility) ([2]; water): very slightly | Conclusion (solubility) ([2]; water, listed as Polymorph 1): very slightly soluble | Dissolving status ([2]; water): fully

Nc1cccc2c1CN(C1CCC(=O)NC1=O)C2=O (single isomer, unassigned) [Polymorph III, 3-(4-amino-1-oxo-1,3-dihydro-2H-isoindole-2-yl)-piperidine-2,6-dione]
Appearance ([1]; 0 months): off-white powder | Content ([1]; 0 months): 99.86% | Related substance ([1]; 0 months): 0.07% | Appearance ([1]; 1 month): off-white powder | Content ([1]; 1 month): 99.81% | Related substance ([1]; 1 month): 0.07% | Appearance ([1]; 2 months): off-white powder | Content ([1]; 2 months): 99.76% | Related substance ([1]; 2 months): 0.07% | Appearance ([1]; 3 months): off-white powder | Content ([1]; 3 months): 99.71% | Related substance ([1]; 3 months): 0.08% | Appearance ([1]; 6 months): off-white powder | Content ([1]; 6 months): 99.62% | Related substance ([1]; 6 months): 0.08% | Conclusion (solubility) ([2]; 0.1 mol/L HCl solution): slightly soluble | Dissolving status ([2]; 0.1 mol/L HCl solution): fully | Conclusion (solubility) ([2]; 0.1 mol/L NaOH solution): sparingly soluble | Dissolving status ([2]; 0.1 mol/L NaOH solution): fully | Conclusion (solubility) ([2]; DMF (N,N-dimethylformamide)): soluble | Dissolving status ([2]; DMF): fully | Conclusion (solubility) ([2]; DMSO (dimethylsulfoxide)): soluble | Dissolving status ([2]; DMSO): fully | Conclusion (solubility) ([2]; acetic acid): sparingly soluble | Dissolving status ([2]; acetic acid): fully | Conclusion (solubility) ([2]; acetone): slightly soluble | Dissolving status ([2]; acetone): fully | Conclusion (solubility) ([2]; acetonitrile): slightly soluble | Dissolving status ([2]; acetonitrile): fully | Conclusion (solubility) ([2]; ethanol): very slightly soluble and very | Dissolving status ([2]; ethanol): fully | Conclusion (solubility) ([2]; ethyl acetate): very slightly soluble and very | Dissolving status ([2]; ethyl acetate): fully | Conclusion (solubility) ([2]; methanol): slightly soluble | Dissolving status ([2]; methanol): fully | Conclusion (solubility) ([2]; water): very slightly soluble; also recorded: practically | Dissolving status ([2]; water): cannot fully | Crystal transformation [3]: a small amount of Polymorph III had transformed to Polymorph I
